As usually defined, the Ki is a measure of affinity in units of concentration, obtained from inhibition or displacement.

This note sets out measurements from paper PMC4741889, “Ligand-based chemoinformatic discovery of a novel small molecule inhibitor targeting CDC25 dual specificity phosphatases and displaying in vitro efficacy against melanoma cells” (Oncotarget, 2015).

Assay [1] deals with SAN cells. Briefly: MTT cell growth rate, SAN melanoma cells. The format is cell-based, human. As to conditions: 100 μM, 48 h, MTT. The procedure: (§1) The human melanoma cell line A2058, kindly provided by CEINGE (Naples, Italy), and SAN cells were derived from lymph nodal metastases and grown in DMEM and RPMI 1640, respectively, supplemented with 10% FBS, 2 mM L-glutamine, 100 IU/mL penicillin G, and 100 μg/mL streptomycin in humidified incubator at 37°C under 5% CO2 atmosphere. All cells were split and seeded every three days and used during the exponential phase of growth. Cell treatments were always carried after 24 h from plating.
(§2) The MTT assay was used to detect cell proliferation essentially as previously described. Briefly, A2058 and SAN cells were plated in 96-well microtiter plates (100 μL/well) at 4000 and 6000 cells/well, respectively. After 24-h seeding, cells were treated with the selected compounds added at 25, 50 or 100 μM concentration, or with 0.5% (v/v) DMSO as a vehicle control. After 24-h, 48-h or 72-h treatment, and upon the addition of 10 μL of MTT solution in the dark, the plate was incubated for 3 h at 37°C under CO2 atmosphere. After medium aspiration and solubilization of formazan crystals, absorbance was measured at 570 nm, using an ELISA plate reader (Bio-Rad, Milano, Italy).

Assay [2] has as its target T1, CDC25B (Homo sapiens, UniProt P30305).
T1 construct: Recombinant forms of the catalytic domains of CDC25A, -B and -C were obtained through the vectors pET28a-CDC25A-cd, pET28a-CDC25B-cd and pET28a-CDC25C-cd; made in house
T1 sequence (P30305 431-538 limits assumed): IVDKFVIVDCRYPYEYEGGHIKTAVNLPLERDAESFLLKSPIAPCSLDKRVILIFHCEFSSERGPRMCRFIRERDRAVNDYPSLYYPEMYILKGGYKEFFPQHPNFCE
Briefly: Residual phosphatase activity of recombinant CDC25B, fluorimetric OMFP assay. The class given is biochemical. As to conditions: for remaining activity at 0.2 µM: 0.2 μM inhibitor; for remaining activity at 0.2 µM / remaining activity at 1 µM: 10 nM CDC25B, 25 μM OMFP, read-out: CDC25B residual activity (%) in the presence of [inhibitor]; for remaining activity at 1 µM: 1 μM inhibitor. The procedure: Among the twenty-five structures identified from the multiple ligand-based chemoinformatic approach, eight compounds (2, 10, 12–14, and 16–18) were excluded from the analysis, because endowed with a strong fluorescent signal, which interfered with the emission wavelength of the synthetic substrate 3-O-methylfluorescein phosphate (OMFP) used in the fluorimetric assay. The inhibition of the phosphatase activity of CDC25B by the remaining seventeen analogs was evaluated in the presence of two different concentrations of these compounds (Table 2). […] For this reason, only one of these latter compounds, i.e. 3, was included in the following analysis.
The enzymatic activity of the catalytic domains of CDC25A, -B and -C were determined through a fluorimetric method, which monitored the dephosphorylation of the synthetic substrate OMFP, essentially as previously described. In steady-state enzyme kinetic studies, the residual phosphatase activity of purified recombinant CDC25B was measured at 30°C in the presence of different concentrations of the various inhibitors, using a computer-assisted Cary Eclipse spectrofluorimeter (Varian) equipped with an electronic temperature controller. Excitation and emission wavelengths were set at 485 and 530 nm, respectively; both excitation and emission slits were set at 10 nm. The reaction mixture contained 10 nM CDC25B and different concentrations of the various inhibitors in 500 μL final volume of 20 mM Tris-HCl, pH 7.8, 1 mM DTT. DMSO was used as vehicle control. The reaction started by the addition of 25 μM OMFP, and the formation of the fluorescent product o-methylfluorescein was monitored continuously. The rate of OMFP hydrolysis was expressed as arbitrary units per min (a.u./min). The comparison of the rates determined in the absence and in the presence of the various inhibitors allowed the calculation of the residual phosphatase activity, expressed as a percentage.

Assay [3] deals with T1, CDC25B. The assay is described as follows: Ki from OMFP hydrolysis kinetics (Lineweaver-Burk), CDC25B. The class given is biochemical. The following applies: 10 nM CDC25B, 1–25 μM OMFP; mean ± S.E. The procedure:
(§3) To measure the inhibition constant (Ki) of the recombinant forms of CDC25A, -B and -C towards the various inhibitors, the affinity of the different forms of CDC25 towards OMFP was measured either in the absence or in the presence of fixed concentrations of the various inhibitors. The reaction mixture contained 20 nM CDC25A, or 10 nM CDC25B, or 40 nM CDC25C, and different concentrations of the various inhibitors in 500 μL final volume of 20 mM Tris-HCl, pH 7.8, 1 mM DTT. DMSO was used as vehicle control. The reaction started by the addition of 1–25 μM OMFP, and the rate of OMFP hydrolysis was measured as indicated before. The corresponding Lineweaver-Burk plots allowed the calculation of the KM for OMFP and of the Vmax of OMFP hydrolysis, expressed as a.u./minmax. […] The Ki values were obtained from the decrease of a.u./minmax in the presence of the inhibitor, according to the equation a.u./mimmax’ = a.u./mimmax/{1 + ([I]/Ki)}, where a.u./mimmax’ represents the Vmax measured in the presence of the concentration [I] of the inhibitor. The Ki values were obtained from at least three independent experiments and reported as mean ± S.E.

The target of assay [4] is T2, CDC25A (Homo sapiens, UniProt P30304).
T2 construct: Recombinant forms of the catalytic domains of CDC25A, -B and -C were obtained through the vectors pET28a-CDC25A-cd, pET28a-CDC25B-cd and pET28a-CDC25C-cd; made in house
T2 sequence (P30304 376-482 limits assumed): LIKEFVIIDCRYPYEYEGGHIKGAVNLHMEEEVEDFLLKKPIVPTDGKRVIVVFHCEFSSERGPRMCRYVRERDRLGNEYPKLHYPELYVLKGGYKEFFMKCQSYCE
Briefly: Ki from OMFP hydrolysis kinetics (Lineweaver-Burk), CDC25A. The format is biochemical. As for the experimental part:
as §3, with “The reaction started by the addition of 1–25 μM OMFP, and the rate of OMFP hydrolysis was measured as indicated before.” left out

For assay [5], the target named is T3, CDC25C (Homo sapiens, UniProt P30307).
T3 construct: Recombinant forms of the catalytic domains of CDC25A, -B and -C were obtained through the vectors pET28a-CDC25A-cd, pET28a-CDC25B-cd and pET28a-CDC25C-cd; made in house
T3 sequence (P30307 321-428 limits assumed): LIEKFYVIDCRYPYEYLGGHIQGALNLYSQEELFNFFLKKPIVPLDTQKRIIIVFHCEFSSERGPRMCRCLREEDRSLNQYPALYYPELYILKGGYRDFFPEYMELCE
Briefly: Ki from OMFP hydrolysis kinetics (Lineweaver-Burk), CDC25C. The format is biochemical. As for the experimental part:
as §3, with “The reaction started by the addition of 1–25 μM OMFP, and the rate of OMFP hydrolysis was measured as indicated before.” left out

Assay [6] deals with A2058 cells. The assay is described as follows: MTT cell growth rate, A2058 melanoma cells. The class given is cell-based, human. As to conditions: A2058, 100 μM, 48 h, MTT. The procedure: as §1, §2
Assay [7] concerns SAN cells. Briefly: Intracellular ROS level (DCFH-DA), SAN cells. The format is cell-based, human. The following applies: SAN cells not treated with 7, 0.5 mM apocynin. The procedure:
The high redox reactivity of quinonoid molecules, like compound 7, could greatly perturb the intracellular redox state. […] The oxidant effect of 7 was also evaluated after cell pre-treatment with two antioxidant molecules, such as N-acetyl-cysteine (NAC) and the specific inhibitor of NADPH oxidase, apocynin. To this aim, A2058 and SAN cells were pre-incubated for 1 h with 10 mM NAC or 45 min with 0.5 mM apocynin and then treated for 4 h with 100 μM compound 7. […] The cytotoxic activity of 7 could be mediated by the observed increase of ROS level.
The intracellular ROS level was monitored using the oxidation-sensitive fluorescence probe DCFH-DA. Cells were seeded into 6-well-plates (3 × 10^5 cells/plate) for 24 h at 37°C and then treated at various times with 100 μM compound 7 or 0.5% DMSO. DCFH-DA was added in the dark at 10 μM final concentration 30-min before the end of each incubation; then, cells were collected, washed in PBS, and finally resuspended in 500 μL PBS for fluorimetric analysis. Measurements were realized in a Cary Eclipse fluorescence spectrophotometer (Varian); excitation and emission wavelengths were set at 485 nm and 530 nm, respectively; both excitation and emission slits were set at 10 nm. The effect of 7 on ROS production was also estimated after pretreatment of cells with 10 mM NAC for 1 h.
Supplementary Figure S5: ROS production and their involvement in the apoptotic process of SAN cells, as induced by treatment with compound 7. A. Time-dependent measurement of ROS production. Cells were incubated with 0.5% DMSO (open bars) or 100 μM compound 7 (black bars) and then the intracellular ROS level was measured. B. Effect of antioxidant molecules on ROS production. The ROS level was also measured in cells untreated or pretreated with NAC or apocynin after a 4-h incubation with DMSO or 7. C. Effect of NAC on apoptosis. The PI incorporation was evaluated in cells untreated or pretreated with NAC after a 48-h incubation with DMSO or 7. ROS production was expressed as a.u., and apoptosis as a percentage. […]

Where [8] appears, read: 20 nM CDC25A, 1–25 μM OMFP, mean ± S.E., read-out: Ki CDC25A.
Setting [9] is: 40 nM CDC25C, 1–25 μM OMFP, mean ± S.E., read-out: Ki CDC25C.

Structures are written as SMILES. Read-outs that look alike come from different tables or passages of the source.

Regarding `O=C(O)/C=C/c1c2ccc(=O)c(O)c-2oc2c(O)c(O)ccc12` [Compound 6, (E)-3-(4,5,6-trihydroxy-3-oxo-3H-xanthen-9-yl)acrylic acid], the cell growth rate entry in assay [1] is on record as “significant reduction of cell growth rate”. Further, the remaining activity at 0.2 µM in assay [2] was 14%. In addition, the remaining activity at 1 µM in assay [2] was 2%. Moreover, the figures for the Ki in assay [3], in assay [4] (setting [8]) and in assay [5] (setting [9]) were 1100 ± 370 nM, 100 ± 30 nM and 1000 ± 410 nM, respectively.

Consider `O=c1cc2oc3cc(O)c(O)cc3c(-c3ccccc3)c-2cc1O` [Compound 9], for which the cell growth rate result in assay [6] and in assay [1] was “failure” each time. Besides, in assay [2], the remaining activity at 0.2 µM was found to be 9%. Also, the remaining activity at 1 µM in assay [2] was found to be 0%. Besides, the Ki in assay [3] was 440 ± 200 nM; in assay [4] (setting [8]), 800 ± 310 nM; in assay [5] (setting [9]) it was 1500 ± 480 nM.

Consider `O=C(O)c1c2ccc(=O)cc-2oc2cc(O)ccc12` [Compound 3], for which the cell growth rate result in assay [6] and in assay [1] was “failure” throughout. Also, the remaining activity at 0.2 µM in assay [2] was found to be 85%. The remaining activity at 1 µM in assay [2] is 62%. Moreover, the “inhibition of the CDC25B phosphatase activity (in words)” value in assay [2] (two inhibitor concentrations, 0.2 and 1 μM) is “measurable inhibition of the phosphatase activity, only when added at the highest concentration”. Also, the figures for the Ki in assay [3], in assay [4] (setting [8]) and in assay [5] (setting [9]) were 2400 ± 390 nM, 280 ± 90 nM and 4400 ± 620 nM, respectively.

For `O=C(O)C=Cc1c2ccc(=O)cc-2oc2cc(O)ccc12` [Compound 5], the cell growth rate result in assay [6] and in assay [1] was “failure” throughout. The remaining activity at 0.2 µM in assay [2] worked out at 12%. For the same molecule, the remaining activity at 1 µM in assay [2] stood at 2%. Moreover, the Ki in assay [3] is 120 ± 50 nM; in assay [4] (setting [8]), 380 ± 120 nM; in assay [5] (setting [9]), 390 ± 150 nM.

Take `O=C(O)C1C(c2c3ccc(=O)c(O)c-3oc3c(O)c(O)ccc23)C2(Cl)C(Cl)=C(Cl)C1(Cl)C2(Cl)Cl` (stereo not drawn) [Compound 25]: the cell growth rate entry in assay [6] and in assay [1] was “failure” in each case. Further, the remaining activity at 0.2 µM in assay [2] was 24%. In assay [2], the remaining activity at 1 µM was 1%. Besides, the figures for the Ki in assay [3], in assay [4] (setting [8]) and in assay [5] (setting [9]) were 1100 ± 400 nM, 400 ± 150 nM and 960 ± 380 nM, respectively.

As for `O=C(O)C1[C@H]2C=C[C@H](C2)[C@H]1c1c2ccc(=O)c(O)c-2oc2c(O)c(O)ccc12` (stereo partly drawn) [Compound 24, (1R,3R,4S)-3-(4,5,6-trihydroxy-3-oxo-3H-xanthen-9-yl)bicyclo[2.2.1]hept-5-ene-2-carboxylic acid], the cell growth rate result in assay [1] is recorded as “significant reduction of cell growth rate”. The remaining activity at 0.2 µM in assay [2] amounted to 22%. For the same molecule, the remaining activity at 1 µM in assay [2] came to 3%. Besides, the Ki in assay [3] was determined as 300 ± 80 nM; in assay [4], 10 ± 5 nM; in assay [5], 400 ± 110 nM.

`COc1cc(C(C)=O)ccc1O` [apocynin, reference compound]: in assay [7], the “basal intracellular redox state” value is reported as “raised the basal intracellular redox state”.
